# Values of other authors as cited in patent publication US12357645B2, “Drug combination for treatment of gastric cancer” (priority 2023, dated 2025).
# What was measured:
# gastric cancer = details: by stimulating expression of p53 and p21 (waf1/cip1); cited from earlier work
# [1] = cited from earlier work
compound,measurement,setting,value
"CC(C)[C@]12O[C@H]1[C@@H]1O[C@]13[C@]1(O[C@H]1C[C@H]1C4=C(CC[C@@]13C)C(=O)OC4)[C@@H]2O [triptolide, reference compound]",cell growth and apoptosis,gastric cancer,inhibit cell growth and induce apoptosis
same,aqueous solubility,[1],limited aqueous solubility
